Data reported in ChEMBL document CHEMBL1141937, “Inhibition of Tpl2 kinase and TNF-alpha production with 1,7-naphthyridine-3-carbonitriles: synthesis and structure-activity relationships” (Bioorg Med Chem Lett, 2005).
Converted amounts (≈) assume the structure as drawn. Each block holds one compound with its values, some of them ahead of it.

What was measured:
[1] = molecular target: T1, Mitogen-activated protein kinase kinase kinase 8 (Homo sapiens, UniProt P41279); assay: Inhibitory activity against human Tpl2 kinase via quantification of MEK phosphorylation; format: functional
Target sequence in this assay (P41279 whole entry): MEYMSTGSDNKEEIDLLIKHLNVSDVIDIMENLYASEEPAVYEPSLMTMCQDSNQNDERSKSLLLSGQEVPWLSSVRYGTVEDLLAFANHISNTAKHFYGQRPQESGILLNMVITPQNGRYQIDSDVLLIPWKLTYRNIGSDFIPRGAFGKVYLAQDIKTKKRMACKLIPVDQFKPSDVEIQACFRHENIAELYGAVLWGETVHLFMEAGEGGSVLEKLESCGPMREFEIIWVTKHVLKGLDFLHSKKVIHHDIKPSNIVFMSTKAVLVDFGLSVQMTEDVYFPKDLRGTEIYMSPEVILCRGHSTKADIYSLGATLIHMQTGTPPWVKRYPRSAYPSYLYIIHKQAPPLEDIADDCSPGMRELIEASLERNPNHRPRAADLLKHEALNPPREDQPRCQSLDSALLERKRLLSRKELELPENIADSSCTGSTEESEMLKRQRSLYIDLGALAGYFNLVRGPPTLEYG

[2] = molecular target: Proto-oncogene tyrosine-protein kinase Src (Homo sapiens, UniProt P12931); assay: Inhibitory activity against Src
[3] = Solubility determined; format: physicochemical
[4] = molecular target: Dual specificity mitogen-activated protein kinase kinase 1 (Homo sapiens, UniProt Q02750); assay: Inhibitory activity against MEK
[5] = molecular target: MAP kinase-activated protein kinase 2 (Homo sapiens, UniProt P49137); assay: Inhibitory activity against MK2
[6] = Plasma binding to human serum albumin; format: ADME; conditions: read-out: PPB (converted)
Protein kinase C (PKC) = assay: Inhibitory activity against PKC; format: protein assay
[7] = molecular target: T1, Mitogen-activated protein kinase kinase kinase 8; assay: Inhibition of LPS-induced TNFalpha production in human whole blood
Target sequence in this assay (P41279 whole entry, looked up): as the sequence (P41279 whole entry) above

MAP kinase p38 = MAP kinase p38 (Homo sapiens, UniProt O15264+Q15759+Q16539+P53778); assay: Inhibitory activity against p38; format: protein assay
[8] = molecular target: T1, Mitogen-activated protein kinase kinase kinase 8; assay: Inhibition of LPS-induced TNFalpha production in primary human monocytes
Target sequence in this assay (P41279 whole entry, looked up): as the sequence (P41279 whole entry) above

Sequence of Proto-oncogene tyrosine-protein kinase Src (P12931 2-536 limits assumed): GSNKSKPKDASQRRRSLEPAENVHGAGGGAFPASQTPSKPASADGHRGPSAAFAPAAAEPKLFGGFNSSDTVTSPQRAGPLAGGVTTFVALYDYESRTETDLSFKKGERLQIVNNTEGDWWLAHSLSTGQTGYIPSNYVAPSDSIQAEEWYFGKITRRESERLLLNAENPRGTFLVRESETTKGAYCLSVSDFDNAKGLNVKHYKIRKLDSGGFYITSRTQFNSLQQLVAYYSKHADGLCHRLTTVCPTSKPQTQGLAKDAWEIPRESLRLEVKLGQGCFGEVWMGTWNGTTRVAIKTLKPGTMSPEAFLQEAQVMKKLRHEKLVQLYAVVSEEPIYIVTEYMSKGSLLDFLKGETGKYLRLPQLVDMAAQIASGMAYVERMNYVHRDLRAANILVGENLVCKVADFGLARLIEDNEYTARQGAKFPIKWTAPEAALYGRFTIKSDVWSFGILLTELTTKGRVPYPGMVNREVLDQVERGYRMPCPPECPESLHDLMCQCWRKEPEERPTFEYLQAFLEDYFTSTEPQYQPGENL
Sequence of MAP kinase-activated protein kinase 2 (P49137 whole entry): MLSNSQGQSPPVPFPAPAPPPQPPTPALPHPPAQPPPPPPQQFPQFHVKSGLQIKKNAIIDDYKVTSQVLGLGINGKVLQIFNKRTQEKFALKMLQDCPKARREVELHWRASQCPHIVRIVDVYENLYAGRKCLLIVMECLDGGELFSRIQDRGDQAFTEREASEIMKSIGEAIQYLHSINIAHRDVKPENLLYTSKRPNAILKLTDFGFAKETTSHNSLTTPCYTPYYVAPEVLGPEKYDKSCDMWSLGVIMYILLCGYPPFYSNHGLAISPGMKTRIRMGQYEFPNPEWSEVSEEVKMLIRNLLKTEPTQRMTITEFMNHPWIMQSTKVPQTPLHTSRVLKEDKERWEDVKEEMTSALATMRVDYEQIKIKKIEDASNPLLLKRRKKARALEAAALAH
Sequence of Dual specificity mitogen-activated protein kinase kinase 1 (Q02750 whole entry): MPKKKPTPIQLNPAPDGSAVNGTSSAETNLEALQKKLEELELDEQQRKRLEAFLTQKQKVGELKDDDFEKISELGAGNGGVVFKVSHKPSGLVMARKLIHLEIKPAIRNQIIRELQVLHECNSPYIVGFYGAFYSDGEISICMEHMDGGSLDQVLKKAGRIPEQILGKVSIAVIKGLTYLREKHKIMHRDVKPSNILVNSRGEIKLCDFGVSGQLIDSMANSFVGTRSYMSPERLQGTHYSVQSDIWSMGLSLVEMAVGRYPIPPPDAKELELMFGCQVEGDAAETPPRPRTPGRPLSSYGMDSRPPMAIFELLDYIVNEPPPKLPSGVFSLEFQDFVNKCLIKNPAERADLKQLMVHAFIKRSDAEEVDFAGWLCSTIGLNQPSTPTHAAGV

SMILES: N#Cc1cnc2cnc(NC(CN3CCOCC3)c3ccccc3)cc2c1Nc1ccc(F)c(Cl)c1 (stereo unspecified)
IC50 [1]: 1.8 µM

SMILES: N#Cc1cnc2cnc(NCCCN3CCOCC3)cc2c1Nc1ccc(F)c(Cl)c1
IC50 [1]: 3.4 µM

SMILES: N#Cc1cnc2cnc(NCCN3CCOCC3)cc2c1Nc1ccc(S(=O)(=O)c2ccccc2)cc1
IC50 [1]: > 40 µM

SMILES: CN1CCN(CCCNc2cc3c(Nc4ccc(F)c(Cl)c4)c(C#N)cnc3cn2)CC1
IC50 [1]: 21 µM

SMILES: CN(Cc1ccccc1)c1cc2c(Nc3ccc(F)c(Cl)c3)c(C#N)cnc2cn1
IC50 [1]: > 40 µM

SMILES: Cc1c(Br)cccc1Nc1c(C#N)cnc2cnc(NCCN3CCOCC3)cc12
IC50 [1]: > 40 µM

SMILES: N#Cc1cnc2cnc(NCCN3CCOCC3)cc2c1NCc1ccc(F)c(Cl)c1
IC50 [1]: > 40 µM

SMILES: N#Cc1cnc2cnc(NC3CCCC3)cc2c1Nc1ccc(F)c(Cl)c1
IC50 [1]: > 40 µM

SMILES: N#Cc1cnc2cnc(NCCCN3CCCC3)cc2c1Nc1ccc(F)c(Cl)c1
IC50 [1]: 3.57 µM

Further lines, results first:

IC50 [1]: > 40 µM
SMILES: N#Cc1cnc2cnc(NCCN3CCOCC3)cc2c1Nc1ccc(Cl)cc1

IC50 [1]: > 40 µM
SMILES: CC[C@H](Nc1cc2c(Nc3ccc(F)c(Cl)c3)c(C#N)cnc2cn1)c1ccccc1

IC50 [1]: 10 µM
SMILES: N#Cc1cnc2cnc(NCCN3CCOCC3)cc2c1Nc1ccc(Cl)cc1F

IC50 [2]: 90 µM
solubility ([3]; read-out: Solubility): 1 µg/mL (≈ 2.14 µM)
IC50 [4]: 0.8 µM
IC50 [5]: > 400 µM
fraction unbound [6]: < 0.01
IC50 (Protein kinase C (PKC)): 200 µM
IC50 [1]: 0.38 µM
SMILES: N#Cc1cnc2cnc(NCCN3CCOCC3)cc2c1Nc1ccc(Oc2ccccc2)cc1

IC50 [7]: 13.6 µM
IC50 [2]: 4 µM
solubility [3]: Insoluble
IC50 [4]: 0.63 µM
IC50 [5]: > 400 µM
fraction unbound [6]: 0.01
IC50 (MAP kinase p38): > 400 µM
IC50 (Protein kinase C (PKC)): > 400 µM
IC50 [1]: 0.002 µM
IC50 [8]: 0.8 µM
SMILES: N#Cc1cnc2cnc(NCCN3CCOCC3)cc2c1Nc1ccc(Cc2ccccc2)cc1

IC50 [1]: 27 µM
SMILES: C[C@H](Nc1cc2c(Nc3ccc(F)c(Cl)c3)c(C#N)cnc2cn1)c1ccccc1

IC50 [1]: 10 µM
SMILES: N#Cc1cnc2cnc(NCCN3CCOCC3)cc2c1Nc1ccc(Cl)c(Cl)c1

IC50 [1]: 0.073 µM
SMILES: N#Cc1cnc2cnc(NCc3ccccc3)cc2c1Nc1ccc(F)c(Cl)c1

IC50 [2]: 40 µM
solubility ([3]; read-out: Solubility): 64 µg/mL (≈ 150 µM)
IC50 [4]: 15 µM
IC50 [5]: > 400 µM
fraction unbound [6]: 0.15
IC50 (Protein kinase C (PKC)): 30 µM
SMILES: N#Cc1cnc2cnc(NCCN3CCOCC3)cc2c1Nc1ccc(F)c(Cl)c1

IC50 [1]: > 40 µM
SMILES: N#Cc1cnc2cnc(NCCN3CCOCC3)cc2c1Nc1ccc(C(F)(F)F)cc1

IC50 [2]: > 400 µM
solubility ([3]; read-out: Solubility): 2 µg/mL (≈ 4.94 µM)
IC50 [4]: > 40 µM
IC50 [5]: 110 µM
fraction unbound [6]: 0.02
IC50 (Protein kinase C (PKC)): > 400 µM
SMILES: N#Cc1cnc2cnc(NCc3cccnc3)cc2c1Nc1ccc(F)c(Cl)c1

IC50 [2]: 3 µM
solubility ([3]; read-out: Solubility): 1 µg/mL (≈ 2.07 µM)
IC50 [4]: 0.96 µM
IC50 [5]: > 400 µM
fraction unbound [6]: < 0.01
IC50 (Protein kinase C (PKC)): > 400 µM
SMILES: N#Cc1cnc2cnc(NCCN3CCOCC3)cc2c1Nc1ccc(Sc2ccccc2)cc1
